Key:
LucPpy = target: T1, LucPpy (Photinus pyralis, UniProt P08659); assay: Stability of reagent composition with LucPpy and detergent (RT, pH 7.0); assay type: biochemical; settings: for Half-life of Luminescence Activity: Common firefly luciferase (P. pyralis); for Average Relative Light Units / Percent of Luminescence Remaining: LucPpy
T1 construct: purchased Promega E170A
From the text: (§1) The detergents used for inhibition of endogenous ATPase activity in a sample also affect activity of luciferase. […] It is ultimately the extended stability of a reagent composition, comprising an ATPase inhibitor and a luciferase enzyme, which provides a composition useful for measuring ATP, in a sample or samples, over an extended period of time.
(§2) In this experiment, the stability of a reagent composition comprising wild type LucPpy was compared to the stability of a reagent composition comprising LucPpe2m146 at about 23° C. (room temperature). The various reagent compositions had varying detergent concentrations.
(§3) Two solutions were created as listed below. One contained the luciferase, luciferin, MgSO4, and buffer (reagent composition). The other solution contained media plus ATP (media solution).
(§4) 50 μg/ml enzyme (LucPpy is Promega catalog #E170A)
(§5) Detergent (at various concentrations, see table below)
(§6) For each reagent composition, all ingredients except the luciferase enzyme were assembled; the enzyme was then added immediately before the first luminescence reading was taken. Immediately after addition of enzyme to each reagent composition and for various timepoints thereafter, 100 μl aliquots of the reagent composition were added to wells of a 96-well microtitre luminometer plate in triplicate. To these were added 100 μl Media Solution containing the ATP. Luminescence was then immediately read on a Dynex MLX microtitreplate luminometer, 0.5 second reads per well. The average relative light unit values as well as the reaction half lives are listed below in Table I and the percent of original luminescence remaining at each timepoint is listed in Table J below. The timepoint at the top of the column indicates the time at which the first rlu measurement for the samples in that column was read. […] Times listed in Table I are the same for Table J. The values for sulfobetaine and for CTAB were generated on different days, they are presented with the control values generated in the same experiment.

LucPpe2m146 = assay: Stability of reagent composition with LucPpe2m146 and detergent (RT, pH 7.0); assay type: biochemical, Photuris pennsylvanica
From the text: as §1, §2, §3, §4, §5, §6

CCCCCCCCCCCC[N+](C)(C)Cc1ccccc1.[Br-] [BDDABr, Benzyldimethyldodecylammonium bromide]
Half-life of Luminescence Activity (LucPpy; conc. 0.100): no activity
Half-life of Luminescence Activity (LucPpy; conc. 0.500): no activity
Average Relative Light Units (LucPpy; 0.02%, 0.75 min (head r32)): 2894.700 rlu
Percent of Luminescence Remaining (LucPpy; 0.02%, 0.75 min (times of Table I r32)): 100.00%
Average Relative Light Units (LucPpy; 0.02%, 38 min (head r32)): 0.035 rlu
Percent of Luminescence Remaining (LucPpy; 0.02%, 38 min (times of Table I r32)): 0.00%
Average Relative Light Units (LucPpy; 0.02%, 70 min (head r32)): 0.015 rlu
Percent of Luminescence Remaining (LucPpy; 0.02%, 70 min (times of Table I r32)): 0.00%
Average Relative Light Units (LucPpy; 0.02%, 94 min (head r32)): 0.016 rlu
Average Relative Light Units (LucPpy; 0.02%, 122 min (head r32)): 0.011 rlu
Average Relative Light Units (LucPpy; 0.1%, 0.75 min (head r18)): 0.007 rlu
Percent of Luminescence Remaining (LucPpy; 0.1%, 0.75 min (times of Table I r18)): 100.00%
Average Relative Light Units (LucPpy; 0.5%, 0.75 min (head r5)): 0.001 rlu
Percent of Luminescence Remaining (LucPpy; 0.5%, 0.75 min (times of Table I r5)): 100.00%
Average Relative Light Units (LucPpe2m146; LucPpe2m146, 0.02%, 1.0 min (head r67)): 26548.60 rlu
Percent of Luminescence Remaining (LucPpe2m146; LucPpe2m146, 0.02%, 1.0 min (times of Table I r67)): 100.00%
Average Relative Light Units (LucPpe2m146; LucPpe2m146, 0.02%, 34 min (head r67)): 26272.87 rlu
Percent of Luminescence Remaining (LucPpe2m146; LucPpe2m146, 0.02%, 34 min (times of Table I r67)): 98.96%
Average Relative Light Units (LucPpe2m146; LucPpe2m146, 0.02%, 65 min (head r67)): 25766.43 rlu
Percent of Luminescence Remaining (LucPpe2m146; LucPpe2m146, 0.02%, 65 min (times of Table I r67)): 97.05%
Average Relative Light Units (LucPpe2m146; LucPpe2m146, 0.02%, 115 min (head r67)): 24155.00 rlu
Percent of Luminescence Remaining (LucPpe2m146; LucPpe2m146, 0.02%, 115 min (times of Table I r67)): 90.98%
Average Relative Light Units (LucPpe2m146; LucPpe2m146, 0.02%, 175 min (head r67)): 25891.70 rlu
Percent of Luminescence Remaining (LucPpe2m146; LucPpe2m146, 0.02%, 175 min (times of Table I r67)): 97.53%
Average Relative Light Units (LucPpe2m146; LucPpe2m146, 0.02%, 238 min (head r67)): 24959.1 rlu
Percent of Luminescence Remaining (LucPpe2m146; LucPpe2m146, 0.02%, 238 min (times of Table I r67)): 94.01%
Average Relative Light Units (LucPpe2m146; LucPpe2m146, 0.02%, 286 min (head r67)): 24510.1 rlu
Percent of Luminescence Remaining (LucPpe2m146; LucPpe2m146, 0.02%, 286 min (times of Table I r67)): 92.32%
Average Relative Light Units (LucPpe2m146; LucPpe2m146, 0.1%, 1.0 min (head r54)): 29.71 rlu
Percent of Luminescence Remaining (LucPpe2m146; LucPpe2m146, 0.1%, 1.0 min (times of Table I r54)): 100.00%
Average Relative Light Units (LucPpe2m146; LucPpe2m146, 0.1%, 34 min (head r54)): 66.09 rlu
Percent of Luminescence Remaining (LucPpe2m146; LucPpe2m146, 0.1%, 34 min (times of Table I r54)): 222.47%
Average Relative Light Units (LucPpe2m146; LucPpe2m146, 0.1%, 65 min (head r54)): 62.19 rlu
Percent of Luminescence Remaining (LucPpe2m146; LucPpe2m146, 0.1%, 65 min (times of Table I r54)): 209.32%
Average Relative Light Units (LucPpe2m146; LucPpe2m146, 0.1%, 115 min (head r54)): 45.18 rlu
Percent of Luminescence Remaining (LucPpe2m146; LucPpe2m146, 0.1%, 115 min (times of Table I r54)): 152.09%
Average Relative Light Units (LucPpe2m146; LucPpe2m146, 0.1%, 175 min (head r54)): 33.89 rlu
Percent of Luminescence Remaining (LucPpe2m146; LucPpe2m146, 0.1%, 175 min (times of Table I r54)): 114.06%
Average Relative Light Units (LucPpe2m146; LucPpe2m146, 0.1%, 238 min (head r54)): 34.46 rlu
Percent of Luminescence Remaining (LucPpe2m146; LucPpe2m146, 0.1%, 238 min (times of Table I r54)): 115.98%
Average Relative Light Units (LucPpe2m146; LucPpe2m146, 0.1%, 286 min (head r54)): 126.90 rlu
Percent of Luminescence Remaining (LucPpe2m146; LucPpe2m146, 0.1%, 286 min (times of Table I r54)): 427.13%
Average Relative Light Units (LucPpe2m146; LucPpe2m146, 0.5%, 15 min (head r41)): 2.040 rlu
Percent of Luminescence Remaining (LucPpe2m146; LucPpe2m146, 0.5%, 15 min (times of Table I r41)): 100.00%
Average Relative Light Units (LucPpe2m146; LucPpe2m146, 0.5%, 72 min (head r41)): 1.140 rlu
Percent of Luminescence Remaining (LucPpe2m146; LucPpe2m146, 0.5%, 72 min (times of Table I r41)): 55.90%
Average Relative Light Units (LucPpe2m146; LucPpe2m146, 0.5%, 124 min (head r41)): 0.998 rlu
Percent of Luminescence Remaining (LucPpe2m146; LucPpe2m146, 0.5%, 124 min (times of Table I r41)): 48.93%
Average Relative Light Units (LucPpe2m146; LucPpe2m146, 0.5%, 190 min (head r41)): 0.899 rlu
Percent of Luminescence Remaining (LucPpe2m146; LucPpe2m146, 0.5%, 190 min (times of Table I r41)): 44.07%
Average Relative Light Units (LucPpe2m146; LucPpe2m146, 0.5%, 251 min (head r41)): 1.042 rlu
Percent of Luminescence Remaining (LucPpe2m146; LucPpe2m146, 0.5%, 251 min (times of Table I r41)): 51.10%
